Target: T1, LcFFase1s (β-D-fructofuranosidase) (Leptothrix cholodnii, UniProt B1Y2A2)
T1 construct: gene Lcho_3297; codon-optimised synthetic gene in pET-28a(+) NdeI/XhoI, E. coli BL21(DE3), Ni-IDA purified (His tag implied, cleavage not mentioned)
T1 sequence (B1Y2A2 1-480): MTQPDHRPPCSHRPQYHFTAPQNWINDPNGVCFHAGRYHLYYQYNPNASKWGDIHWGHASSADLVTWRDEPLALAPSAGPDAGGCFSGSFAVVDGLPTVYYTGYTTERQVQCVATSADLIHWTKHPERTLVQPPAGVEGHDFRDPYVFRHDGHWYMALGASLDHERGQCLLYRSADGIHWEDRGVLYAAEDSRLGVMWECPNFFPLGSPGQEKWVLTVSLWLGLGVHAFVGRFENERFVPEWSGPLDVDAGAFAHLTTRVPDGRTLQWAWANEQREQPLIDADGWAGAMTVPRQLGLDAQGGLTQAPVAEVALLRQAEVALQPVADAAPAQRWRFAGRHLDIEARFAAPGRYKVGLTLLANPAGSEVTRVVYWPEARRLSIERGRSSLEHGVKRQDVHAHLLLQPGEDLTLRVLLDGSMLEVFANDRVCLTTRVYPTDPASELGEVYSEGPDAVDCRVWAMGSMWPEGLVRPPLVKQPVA
Assay: TLC of hydrolysis products
Assay type: biochemical
Details: 20 mg/mL substrate, 5 U/mL enzyme, 50 mM sodium hydrogen phosphate-citrate pH 6.5, 40 °C

SMILES	TLC of hydrolysis products
OC[C@H]1O[C@H](OC[C@H]2O[C@H](O[C@]3(CO)O[C@H](CO)[C@@H](O)[C@@H]3O)[C@H](O)[C@@H](O)[C@@H]2O)[C@H](O)[C@@H](O)[C@H]1O [raffinose]	LcFFase1s entirely hydrolyzed raffinose and stachyose into fructose and melibiose or raffinose
OC[C@H]1O[C@H](OC[C@H]2O[C@H](OC[C@H]3O[C@H](O[C@]4(CO)O[C@H](CO)[C@@H](O)[C@@H]4O)[C@H](O)[C@@H](O)[C@@H]3O)[C@H](O)[C@@H](O)[C@H]2O)[C@H](O)[C@@H](O)[C@H]1O [stachyose]	LcFFase1s entirely hydrolyzed raffinose and stachyose into fructose and melibiose or raffinose
